Laboratory results taken from patent publication US20090181948A1, “DIAMINE DERIVATIVE” (KYOWA HAKKO KOGYO CO., LTD., priority 2005, published 2009).

How the values were obtained:
histamine H3 receptor = molecular target: T1, histamine H3 receptor (Rattus norvegicus, UniProt Q9QYN8); experiment: Histamine H3 receptor binding assay ([3H]-Nα-methylhistamine binding to rat striatum homogenate); details: 1 μmol/L test compound; [3H]-Nα-methylhistamine 1 nmol/L; striata of Sprague-Dawley male rats, 25° C., 1 hour; read-out: Inhibition ratio of [3H]-Nα-methylhistamine binding
T1 construct: from tissue; host or cells: rat striatum (Sprague-Dawley, male, 6 weeks), membrane homogenate
T1 sequence (Q9QYN8 whole entry): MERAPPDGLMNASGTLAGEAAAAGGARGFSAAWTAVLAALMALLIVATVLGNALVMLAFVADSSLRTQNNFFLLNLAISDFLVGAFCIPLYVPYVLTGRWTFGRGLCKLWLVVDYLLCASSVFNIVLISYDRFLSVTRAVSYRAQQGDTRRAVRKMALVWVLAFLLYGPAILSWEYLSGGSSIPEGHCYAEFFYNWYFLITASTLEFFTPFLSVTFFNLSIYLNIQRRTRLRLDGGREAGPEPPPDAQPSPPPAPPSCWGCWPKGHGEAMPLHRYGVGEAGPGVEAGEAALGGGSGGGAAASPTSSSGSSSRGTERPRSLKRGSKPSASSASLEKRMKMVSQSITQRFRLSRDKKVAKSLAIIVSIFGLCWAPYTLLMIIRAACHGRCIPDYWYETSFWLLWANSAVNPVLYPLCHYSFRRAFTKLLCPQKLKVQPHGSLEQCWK
Summary of the method: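 Rat striatum membranes (20 μg protein) incubated with [3H]-Nα-methylhistamine 1 nmol/L in 50 mmol/L Tris/HCl pH 7.4, 5 mmol/L EDTA, 1 hour at 25° C; bound ligand by filtration and scintillation counting. Nonspecific binding defined with 10 μmol/L thioperamide; % inhibition reported at 1 μmol/L compound.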

| inhibition at 1 µM (histamine H3 receptor) | melting point | Structure (SMILES) |
| --- | --- | --- |
| ≥ 80% | 93 to 94 °C | C[C@@H]1CCCN1CCCN1CCN(CCN2CCC[C@@H]2C)C1=C(C#N)C#N [Compound 197, {3-[2-((S)-2-methylpyrrolidin-1-yl)ethyl]-1-[3-((R)-2-methylpyrrolidin-1-yl)propyl]imidazolidin-2-ylidene}malononitrile] |
| ≥ 80% | 88 to 89 °C | CC1CCCCN1CCN1CCN(CCCN2CCC[C@@H]2C)C1=C(C#N)C#N (stereo partly drawn) [Compound 198, {3-[2-(2-Methylpiperidino)ethyl]-1-[3-((S)-2-methylpyrrolidin-1-yl)propyl]imidazolidin-2-ylidene}malononitrile] |
| ≥ 80% | 85 to 86 °C | CC1CCCN1CCCN1C(=C(C#N)C#N)N(CCN2CCCCC2)c2ccccc21 (stereo not shown) [Compound 200, {1-[3-(2-Methylpyrrolidin-1-yl)propyl]-3-(2-piperidinoethyl)benzimidazolidin-2-ylidene}malononitrile] |
| ≥ 80% | 72 to 73 °C | C[C@H]1CCCN1CCCN1CCN(CCCN2CCOCC2)C1=C(C#N)C#N [Compound 201, {3-(3-Morpholinopropyl)-1-[3-((S)-2-methylpyrrolidin-1-yl)propyl]imidazolidin-2-ylidene}malononitrile] |
| ≥ 80% | 112 to 115 °C | C#CC(C)(C)N1CCC(N2CCN(CCCN3CCCCC3)C2=C(C#N)C#N)CC1 [Compound 228, {1-[1-(1,1-Dimethyl-2-propynyl)piperidin-4-yl]-3-(3-piperidinopropyl)imidazolidin-2-ylidene}malononitrile] |
